Test results as given in patent US20120122692A1, “Method and Formulation for Eliminating Moss with Oregano Oil” (priority 2006, published 2012).

Columns and labels:
[1] = system: silvery thread moss; test: Field test of spray treatments on silvery thread moss in a creeping bentgrass putting green: percent moss cover; format: in vivo, Bryum argenteum
Protocol: (§1) Aqueous solutions of oregano oil extract were tested on silvery thread moss growing on turf grass. The turf grass was a mature stand of “Penncross” creeping bentgrass Agrostis stolonifera L. on a sand based rootzone. IA grid of six inch square plots were arranged on the turf. Each plot was initially rated for percent moss cover on July, 2006. Only plots with greater than 50% moss cover tracked for this test. Table 1 summarized the 79 treatments tested. Oregano oil extract formulations were compared with carefentrazone and a non-treated control. Several oregano oil formulation includes a surfactant, and these formation are marked as ORG AS, ORG BS, ORG CS, and ORG DS. Each formulation was applied as a squirt or pump from a spray bottle containing the formulation. The spray bottle used was one quart bottle that delivered 2.8 ml per pump onto a four inch square are. All of the formulations were applied at least once on Jul. 6, 2006. Sequential applications were also additionally performed bi-weekly on Jul. 20, Aug. 17 and Sep. 12, 2006 for a total of one, three, or four bi-weekly application. Each carefentrazone application was made at a recommended rate of 6.7 fl. Oz. product/A.
(§2) The data from the test were analyzed using PROC ANOVA of the SAS software, Version 8 of the SAS System for Windows (SAS Institute, 1999). Means were separated (alpha=0.05) by Fischer's protected LSD (Fischer, 1966). Turf quality was rated on a scale of 1-10, where 10=best turf with no phyoxicity, 6=lowest acceptable turf quality and turf phytotoxicity, 1=worst turf quality with most phytotosixity and completely brown turf.

[2] = system: “Penncross” creeping bentgrass Agrostis stolonifera L.; test: Field test of spray treatments on a creeping bentgrass putting green: turf quality / phytotoxicity rating; format: in vivo; conditions: scale 1-10: 10=best turf, no phytotoxicity, 6=lowest acceptable, 1=completely brown turf
Protocol: as §1, §2

Cc1nn(-c2cc(CC(Cl)C(=O)O)c(Cl)cc2F)c(=O)n1C(F)F (stereo not drawn) [Treatment E11, Carfentrazone]
% Moss Cover ([1]; 9 Oct (Oct. 9, 2006)): 48.0% | % Moss Cover ([1]; 12 Sep): 66.0% | % Moss Cover ([1]; 17 Aug): 60.0% | Turf Quality ([2]; 9 Oct): 10.0 | Turf Quality ([2]; 12 Sep): 10.0 | Turf Quality ([2]; 17 Aug): 10.0

Cc1nn(-c2cc(CC(Cl)C(=O)O)c(Cl)cc2F)c(=O)n1C(F)F (stereo not drawn) [Treatment E13, Carfentrazone]
% Moss Cover ([1]; 9 Oct (Oct. 9, 2006)): 70.8% | % Moss Cover ([1]; 12 Sep): 73.8% | % Moss Cover ([1]; 17 Aug): 68.8% | Turf Quality ([2]; 9 Oct): 10.0 | Turf Quality ([2]; 12 Sep): 10.0 | Turf Quality ([2]; 17 Aug): 9.6

Cc1nn(-c2cc(CC(Cl)C(=O)O)c(Cl)cc2F)c(=O)n1C(F)F (stereo not drawn) [ES16, Carfentrazone]
% Moss Cover ([1]; 9 Oct (Oct. 9, 2006)): 55.8% | % Moss Cover ([1]; 12 Sep): 61.8% | % Moss Cover ([1]; 17 Aug): 55.8% | Turf Quality ([2]; 9 Oct): 10.0 | Turf Quality ([2]; 12 Sep): 10.0 | Turf Quality ([2]; 17 Aug): 10.0

Cc1nn(-c2cc(CC(Cl)C(=O)O)c(Cl)cc2F)c(=O)n1C(F)F (stereo not drawn) [Treatment E16, Carfentrazone]
% Moss Cover ([1]; 9 Oct (Oct. 9, 2006)): 55.0% | % Moss Cover ([1]; 12 Sep): 59.0% | % Moss Cover ([1]; 17 Aug): 58.0% | Turf Quality ([2]; 9 Oct): 9.6 | Turf Quality ([2]; 12 Sep): 10.0 | Turf Quality ([2]; 17 Aug): 10.0

Cc1nn(-c2cc(CC(Cl)C(=O)O)c(Cl)cc2F)c(=O)n1C(F)F (stereo not drawn) [ES13, Carfentrazone]
% Moss Cover ([1]; 9 Oct (Oct. 9, 2006)): 63.0% | % Moss Cover ([1]; 12 Sep): 75.0% | % Moss Cover ([1]; 17 Aug): 81.8% | Turf Quality ([2]; 9 Oct): 10.0 | Turf Quality ([2]; 12 Sep): 10.0 | Turf Quality ([2]; 17 Aug): 10.0

Cc1nn(-c2cc(CC(Cl)C(=O)O)c(Cl)cc2F)c(=O)n1C(F)F (stereo not drawn) [ES11, Carfentrazone]
% Moss Cover ([1]; 9 Oct (Oct. 9, 2006)): 77.0% | % Moss Cover ([1]; 12 Sep): 65.8% | % Moss Cover ([1]; 17 Aug): 82.0% | Turf Quality ([2]; 9 Oct): 10.0 | Turf Quality ([2]; 12 Sep): 10.0 | Turf Quality ([2]; 17 Aug): 10.0
